Measurements as given in patent US11787812B2, “Substituted pyrazolo[4,3-d]pyrimidines and imidazo[5,1 -f][1,2,4]triazines as androgen receptor and phosphodiesterase dual inhibitors” (ILDONG PHARMACEUTICAL CO., LTD., priority 2020, dated 2023).

Columns and labels:
human PDE-5A1 = human PDE-5A1 (Homo sapiens (Human), UniProt O76074); assay: Human PDE-5A1 inhibition assay (fluorescence polarization, FAM-cGMP); type: biochemical; conditions: human PDE5A1, 100 nM FAM-cGMP, 60 minutes room temperature
Description: This example illustrates the in vitro inhibition of human PDE-5A1 by exemplary compounds of this disclosure (e.g., as described herein).
Sildenafil citrate (Catalog no. LKT-S3313, Axxora, San Diego, CA), Vardenafil hydrochloride trihydrate (Catalog no. SML2103, Sigma-Aldrich, St. Louis, MO), PDE Assay Buffer (Catalog no. 60393, BPS bioscience, San Diego, CA), PDE Binding Agent (Catalog no. 60390, BPS bioscience, San Diego, CA) and PDE Binding Agent Diluent (cGMP, Catalog no. 60392, BPS bioscience, San Diego, CA) were used for assays. Test compounds were supplied by Ildong Pharmaceuticals Co., Ltd.
The serial dilution of the compounds was first performed in 100% DMSO with the highest concentration at 1 mM and 0.1 mM. Each intermediate compound dilution (in 100% DMSO) will then get directly diluted 10× fold into assay buffer for 10% DMSO and 5 μL of the dilution was added to a 50 μL reaction so that the final concentration of DMSO is 1% in all reactions.
The enzymatic reactions were conducted at room temperature for 60 minutes in a 50 μL mixture containing PDE assay buffer, 100 nM FAM-cGMP, a PDE enzyme (Table 2) and the test compounds.
After enzymatic reaction, 100 μL of a binding solution (1:100 dilution of the binding agent with the binding agent diluent) was added to each reaction and the reaction was performed at room temperature for 60 minutes.
Fluorescence intensity was measured at excitation of 485 nm and an emission of 528 nm using a Tecan Infinite M1000 microplate reader.
PDE activity assays were performed in duplicate at each concentration. Fluorescence intensity is converted to fluorescence polarization using the Tecan Magellan6 software. The fluorescence polarization (FPt) in absence of the compound in each data set was defined as 100% activity. In the absence of PDE and the compound, the value fluorescent polarization (FPb) in each data set was defined as 0% activity. The percent activity in the presence of compound was calculated according to Equation 1:
[formula] where FP=the fluorescence polarization in the presence of the compound.
The values of % activity versus a series of compound concentrations were then plotted using non-linear regression analysis of Sigmoidal dose-response curve generated with Equation 2:
[formula] where Y=percent activity, B=minimum percent activity, T=maximum percent activity, X=logarithm of compound, and Hill Slope=slope factor or Hill coefficient. The IC50 value was determined by the concentration causing a half-maximal percent activity. Results

Human androgen receptors = Human androgen receptors (Homo sapiens (Human), UniProt P10275, T878A); assay: Androgen receptor (AR) radioligand binding assay; conditions: receptors from human LNCaP cells, 0.5 nM [3H]Methyltrienolone, 20 hours at 4° C.; read-out: AR IC50
Sequence of Human androgen receptors (P10275 whole entry T878A): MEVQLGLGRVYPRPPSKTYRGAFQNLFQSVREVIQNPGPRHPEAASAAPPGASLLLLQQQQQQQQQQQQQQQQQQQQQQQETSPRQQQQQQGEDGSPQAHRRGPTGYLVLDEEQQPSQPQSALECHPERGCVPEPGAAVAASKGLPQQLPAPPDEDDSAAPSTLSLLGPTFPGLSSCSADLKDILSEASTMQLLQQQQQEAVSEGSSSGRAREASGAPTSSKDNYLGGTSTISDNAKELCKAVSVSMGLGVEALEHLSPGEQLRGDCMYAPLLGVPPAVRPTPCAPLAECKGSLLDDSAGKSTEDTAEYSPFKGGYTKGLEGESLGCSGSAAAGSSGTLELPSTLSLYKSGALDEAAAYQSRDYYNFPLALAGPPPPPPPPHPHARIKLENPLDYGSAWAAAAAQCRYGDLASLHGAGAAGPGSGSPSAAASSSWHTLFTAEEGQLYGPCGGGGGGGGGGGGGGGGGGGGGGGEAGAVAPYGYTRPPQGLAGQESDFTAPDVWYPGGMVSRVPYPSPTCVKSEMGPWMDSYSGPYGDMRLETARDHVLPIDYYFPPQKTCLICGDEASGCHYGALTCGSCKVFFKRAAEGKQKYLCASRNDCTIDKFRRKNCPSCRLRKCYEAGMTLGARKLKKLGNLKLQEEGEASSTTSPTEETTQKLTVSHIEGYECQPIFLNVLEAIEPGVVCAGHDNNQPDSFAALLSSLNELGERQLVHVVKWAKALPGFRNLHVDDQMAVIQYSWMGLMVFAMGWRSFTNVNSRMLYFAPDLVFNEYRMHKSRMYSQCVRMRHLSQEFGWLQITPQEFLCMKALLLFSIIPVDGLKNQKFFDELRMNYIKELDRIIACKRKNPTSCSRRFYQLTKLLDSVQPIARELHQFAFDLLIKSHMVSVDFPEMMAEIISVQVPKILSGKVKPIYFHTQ
Method: Methods employed in this study have been adapted from the following literature procedure.
Human androgen receptors obtained from human LNCaP cells are used in modified HEPES buffer pH 7.4. […] Non-specific binding is estimated in the presence of 1 μM testosterone. […] (See, e.g., Traish, A. M et al., Binding of 7α, 17α-dimethyl-19-nortestosterone (Mibolerone) to androgen and progesterone receptors in human and animal tissues. Endocrinology. 118(4): 1327-1333, 1986).
Compounds are screened at 10 μM.
Where presented, IC50 values were determined by a non-linear, least squares regression analysis using MathIQ™ (ID Business Solutions Ltd., UK).

androgen receptor (AR) = androgen receptor (AR) (Homo sapiens (Human), UniProt P10275); assay: Androgen receptor (AR) reporter assay, antagonist screen activated by R1881; type: cell-based; conditions: AR-UAS-bla GripTite 293 cells, antagonist mode, R1881 at EC80
Sequence of androgen receptor (AR) (P10275 other isoform, or with tags, fused parts or gaps): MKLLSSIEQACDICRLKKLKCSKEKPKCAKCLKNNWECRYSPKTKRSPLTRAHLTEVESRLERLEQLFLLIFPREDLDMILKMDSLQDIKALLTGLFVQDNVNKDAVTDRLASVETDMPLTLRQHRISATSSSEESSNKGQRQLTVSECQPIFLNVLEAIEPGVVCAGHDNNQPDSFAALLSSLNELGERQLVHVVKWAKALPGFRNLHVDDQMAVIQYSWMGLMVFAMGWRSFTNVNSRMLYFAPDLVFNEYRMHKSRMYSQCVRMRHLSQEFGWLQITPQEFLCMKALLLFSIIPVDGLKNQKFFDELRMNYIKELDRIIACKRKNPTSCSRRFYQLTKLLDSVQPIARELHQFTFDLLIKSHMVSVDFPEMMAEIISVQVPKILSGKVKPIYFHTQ
Method: The protocols and results of this Example were carried out and obtained by Thermofisher Scientific.
Test compounds were received at 1000× (or greater) of the desired starting concentration in 100% DMSO. If compounds were supplied at greater that 1000× concentration, an initial dilution is made in 100% DMSO to bring the compounds to 1000× concentration. The 1000× test compounds were serially diluted (10 point ½-log increments) in 100% DMSO.
The Substrate Loading Solution consists of three Life Technologies reagents: Solution A (10 mM LiveBLAzer™-FRET B/G Substrate), Solution B and Solution C.
Androgen Receptor (AR)—Antagonist Screen, Activated by R1881
AR-UAS-bla GripTite™ 293 cells were thawed and resuspended in Assay Media (DMEM phenol red free, 2% CD-treated FBS, 0.1 mM NEAA, 1 mM Sodium Pyruvate, 100 U/mL/100 μg/mL Pen/Strep) to a concentration of 312,500 cells/mL. 4 μL of a 10× serial dilution of Cyproterone Acetate (control antagonist starting concentration, 3,160 nM) or compounds are added to appropriate wells of a Poly-D-Lysine assay plate. 32 μL of cell suspension was added to the wells and pre-incubated at 37° C./5% CO2 in a humidified incubator with compounds and control antagonist titration for 30 minutes. 4 μL of 10× control agonist R1881 at the pre-determined EC80 concentration was added to wells containing the control antagonist or compounds. The plate was incubated for 16-24 hours at 37° C./5% CO2 in a humidified incubator. 8 μL of 1 μM Substrate Loading Solution is added to each well and the plate was incubated for 2 hours at room temperature. The plate was read on a fluorescence plate reader (Tecan Safire^2).

Row | SMILES | IC50 (human PDE-5A1) [nM] | IC50 (Human androgen receptors) [nM] | IC50 (androgen receptor (AR)) [nM]
1 | CCCc1nc(C)c2c(=O)[nH]c(-c3cc(N4C(=S)N(c5ccc(C#N)c(C(F)(F)F)c5)C(=O)C45CCCC5)ccc3OCC)nn12 [Compound 38, 4-(1-(4-ethoxy-3-(5-methyl-4-oxo-7-propyl-3,4-dihydroimidazo[5,1-f][1,2,4]triazin-2-yl)phenyl)-4-oxo-2-thioxo-1,3-diazaspiro[4.4]nonan-3-yl)-2-(trifluoromethyl)benzonitrile] | ≤ 10 | < 50 | ≤ 500
2 | CCCc1nc(C)c2c(=O)[nH]c(-c3cc(N4C(=S)N(c5ccc(C#N)c(C(F)(F)F)c5F)C(=O)C4(C)C)ccc3OCC)nn12 [Compound 47, 4-(3-(4-ethoxy-3-(5-methyl-4-oxo-7-propyl-3,4-dihydroimidazo[5,1-f][1,2,4]triazin-2-yl)phenyl)-4,4-dimethyl-5-oxo-2-thioxoimidazolidin-1-yl)-3-fluoro-2-(trifluoromethyl)benzonitrile] | ≤ 10 | < 50 | ≤ 500
3 | CCCc1nc(C)c2c(=O)[nH]c(-c3cc(N4C(=S)N(c5ccc(C#N)c(C(F)(F)F)c5F)C(=O)C45CCC5)ccc3OCC)nn12 [Compound 48, 4-(5-(4-ethoxy-3-(5-methyl-4-oxo-7-propyl-3,4-dihydroimidazo[5,1-f][1,2,4]triazin-2-yl)phenyl)-8-oxo-6-thioxo-5,7-diazaspiro[3.4]octan-7-yl)-3-fluoro-2-(trifluoromethyl)benzonitrile] | ≤ 10 | < 50 | ≤ 500
4 | CCCc1nc(C)c2c(=O)[nH]c(-c3cc(N4C(=S)N(c5ccc(C#N)c(C(F)(F)F)c5F)C(=O)C45CCOC5)ccc3OCC)nn12 (stereo not drawn) [Compound 49, 4-(1-(4-ethoxy-3-(5-methyl-4-oxo-7-propyl-3,4-dihydroimidazo[5,1-f][1,2,4]triazin-2-yl)phenyl)-4-oxo-2-thioxo-7-oxa-1,3-diazaspiro[4.4]nonan-3-yl)-3-fluoro-2-(trifluoromethyl)benzonitrile] | ≤ 10 | < 50 | 500 to 1000
5 | CCCc1nc(C)c2c(=O)[nH]c(-c3cc(N4C(=S)N(c5ccc(C#N)c(C(F)(F)F)c5F)C(=O)C45CCCC5)ccc3OCC)nn12 [Compound 50, 4-(1-(4-ethoxy-3-(5-methyl-4-oxo-7-propyl-3,4-dihydroimidazo[5,1-f][1,2,4]triazin-2-yl)phenyl)-4-oxo-2-thioxo-1,3-diazaspiro[4.4]nonan-3-yl)-3-fluoro-2-(trifluoromethyl)benzonitrile] | ≤ 10 | < 50 | ≤ 500
